Literature values as cited in patent publication US20260102408A1, “CONTRACEPTIVE COMPOSITIONS WITH REDUCED ADVERSE EFFECTS” (ESTETRA SRL, priority 2020, published 2026).

Conditions: single oral dose; Blode H et al. Study 1; Caucasian; geometric mean

For C[C@]12CCC(=O)C=C1[C@@H]1C[C@@H]1[C@H]1[C@@H]3[C@@H]4C[C@@H]4[C@@]4(CCC(=O)O4)[C@@]3(C)CC[C@@H]12 [DRSP 3 mg, drospirenone], the “AUCinf of DRSP” value is listed as 506 ng·h/mL and the “Cmax of DRSP” value is listed as 33.9 ng/mL.
